Data set [1] can be described thus: Enzymatic hydrolytic cleavage and rate of oxidation of compound 5c in rat brain homogenate (HPLC). It is filed as in vitro ADME, Sprague-Dawley rats. As to conditions: rat, pH 7.4; 20% brain homogenate, 37°C, pseudo first order; read-out: apparent half-lives for the disappearance. How it is done: (§1) A high pressure liquid chromatography (HPLC) method was developed for the studies of the degradation of the dihydropyridine dopamine derivative. The chromatographic analysis was performed on a component system consisting of a Waters Associate Model 6000A solvent delivery system, Model U6K injector and Model 440 dual channel absorbance detector operated at 254 and 280 nm. A 30 cm x 3.9 mm (internal diameter) reverse phase µBondapak C18 column (Waters Associates), operated at ambient temperature, was used for all separations. The mobile phase used for the separation of the dihydropyridine derivative, its degradation products and oxidation products consisted of 0.005 M solution of 1-heptanesul- fonic acid sodium salt (PIC B-7 Eastman Kodak) in CH3CN; 0.01 M aqueous dibasic ammonium phosphate (2.5:1). A peak was always shown at a retention time of 2.2 min which is believed to be a monodeacylated dihydropyridine derivative, since it eventually did result in 6a.
The brain homogenate was prepared by the following method. Five Sprague-Dawley rats were killed by decapitation and the brains were removed, weighed (total weight 9.85 g) and homogenized in 49.3 ml of aqueous 0.11 M phosphate buffer, pH 7.4. The homogenate was centrifuged and the supernatant was used for the test. […] Each supernatant was filtered through two Whatman 1 filter papers and analyzed by HPLC.

Data set [2] can be described thus: Concentration of compound 6a in brain and blood after parenteral administration of 5c. It is filed as in vivo, Male Sprague-Dawley rats. As to conditions: after administration of 5c, rat. The method, then:
The dihydropyridine derivative (5c) was then selected for the in vivo study. A solution in DMSO (dimethylsulfoxide) was injected through the jugular vein to a group of male Sprague-Dawley rats which were then sacrificed at various time intervals; their blood and brains were analyzed for the quaternary percursor of dopamine (6a). The in vivo dopaminergic activities of the selected compounds 5c vs. 6a were then determined.
Male Sprague-Dawley rats of average weight of 150 ± 10g were used. The rats were anesthetized with IM injection of Inovar and the jugular was exposed. Compound 5c was injected intrajugularly in the form of 10% solution in DMSO at a dose of 64.2 mg/kg (equivalent to 50 mg/kg compound 6a). The injection was given at a rate of 24 µl/min using a calibrated infusion pump. […] The weighed brain was homogenized with 0.5 ml of distilled water, 3 ml of acetonitrile was added and the mixture was rehomogenized thoroughly, centrifuged, filtered and then analyzed for compound 6a using the HPLC method. The tubes containing the blood were shaken vigorously, centrifuged, decanted and also analyzed for compound 6a using the HPLC method. Quantitation was done by using a recovery standard curve obtained by introducing a known amount of 6a in either brain homogenate or blood and then treated in the same manner. […]

Data set [3] relates to serum prolactin. The experiment in a line: In vivo effect on pituitary prolactin secretion (17-β-estradiol primed male rats). As to conditions: Intravenous administration, 1 mg/kg dose level. The text has this: Adult male rats (Charles Rivers, CD-1) weighing 200 to 225 g were provided food and water ad libitum for at least one week period to experimentation. To elevate serum prolactin levels, each rat received a single s.c. implant of a Silastic tube (1.57 mm interior diameter, 5 mm x 3.15 mm overall size) packed with crystalline 17-,8-estradiol. Two days later the rats were lightly anesthetized with ether and a small incision was made over the right jugular vein for intravenous (LV.) administration of the test drugs. Compound 6a was injected at a dose of 1 mg/kg body weight/ml saline and groups of six rats were decapitated at 15, 30, 60 and 120 min later to collect blood samples. Control rats (time 0) received an I.V. injection of the saline vehicle and were decapitated 30 min later. Compound 5c was dissolved in 10% ethanol in saline and was injected IV. Rats were decapitated at 15, 30 and 120 min later. Control (time 0) animals received the 10% ethanol vehicle and were sampled 30 min later.
Trunk blood was collected, allowed to clot for 2h and the serum was separated and stored at -20 ° C for subsequent assay for prolactin concentrations. Each serum sample was assayed in duplicate by the doubleantibody radioimmunoassay procedure described by the National Pituitary Agency Hormone Distribution Program. Serum prolactin concentrations are expressed in terms of the PRL-RP-2 reference preparation provided. The intraassay coefficient of variation for 10 replicate samples of pooled serum obtained from male rats was 13.8%.
The effects of compounds 5c and 6a on serum prolactin concentrations were evaluated by one-way analysis of variance and Student-Newman Keuls tests. A probability level of less than 0.05 was selected for significance. See FIGURE 7 and the discussion thereof hereinabove.

Data set [4] is described as follows: Enzymatic hydrolytic cleavage and rate of oxidation of compound 5c in human blood (HPLC). It is filed as in vitro ADME. As to conditions: whole citrated blood, 37°C, pseudo first order, read-out: apparent half-lives for the disappearance. How it is done:
as §1
The freshly collected heparinized blood was obtained at the Civitan Regional Blood Center, Inc. (Gainesville, Florida). The blood was stored in a refrigerator and used the next day. […] When all samples had been collected, they were centrifuged and the supernatants were filtered using Whatman 4 filter paper and analyzed by HPLC.

Data set [5] can be described thus: Enzymatic hydrolytic cleavage and rate of oxidation of compound 5c in human plasma (HPLC). In kind it is in vitro ADME. As to conditions: 80% plasma, 37°C, pseudo first order, read-out: apparent half-lives for the disappearance. How it is done:
as §1
The freshly collected plasma used was obtained at the Civitan Regional Blood Center, Inc. (Gainesville, Florida) and contained about 80% plasma diluted with anticoagulant citrate phosphate dextrose solution U.S.P. The plasma was stored in a refrigerator and used the next day. […] When all samples had been collected, they were centrifuged and the supernatants were filtered through Whatman 1 filter papers and analyzed to HPLC.

SMILES strings stand for the structures. Where only a bound is given, the exact number is not on record here.

Take `CN1C=CCC(C(=O)NCCc2ccc(OC(=O)C(C)(C)C)c(OC(=O)C(C)(C)C)c2)=C1` [5c, 1-Methyl-3-(N-[β-(3,4-dipivalyloxyphenyl)-ethyl]}carbamoyl-1,4-dihydropyridine]: in data set [1], the half-life at 1800 µM came to 17 min. The “formation of O-methyl metabolites (9, 10) in the brain” value in data set [2] is recorded as “No formation of O-methyl metabolites (9, 10) could be detected”. Also, the “time through which the reduction of serum prolactin was maintained” value in data set [3] was at least 120 min. In addition, the “decrease in serum prolactin concentrations” value in data set [3] (male rats exposed to 17-β-estradiol) came to 79%. Moreover, in data set [4], the half-life at 900 µM is 18 min. Further, the half-life at 3050 µM in data set [5] stood at 51 min.
